Measured values taken from patent US7410955B2, “Therapeutic use of agonist ligands specific to G2A receptor” (Biosynergen, Inc., priority 2002, dated 2008).

Key:
[1] = test system: neutrophils; test: Bactericidal activity of neutrophils from bacteria-induced sepsis model mice; assay type: cell-based; settings: 30 μM 1-stearoyl LPC for 1 hour after E. coli ingestion, 1 hour killing time; vs PBS control
Description: ICR mice (25-30 g in body weight; MJ Ltd.) were intraperitoneally injected with alive 10^8 cells/ml E. coli (DH5a) that were suspended in 0.5 ml of PBS (phosphate-buffered saline) to cause peritonitis, thereby inducing sepsis.
The isolated neutrophils were adhered to the cover slip coated with poly-L-Lysine (0.01%) in a cell incubator maintained at 37° C., at a cell concentration of 10^6 cells/ml for 1 hour. Thereafter, E. coli was added thereto in a concentration of 10^6 cells/ml and cultured for 1 hour. E. coli cells that were not ingested by neutrophils were removed by washing the cover slip with PBS buffer. The cover slip was then treated with […] 1-stearoyl LPC, and further cultured for another 1 hour. In this stage, the cover slip of the control group was treated with PBS buffer, instead of LPC. Thereafter, after the exchange of a new RPMI-1640 medium, they were further cultured for 1 hour to give killing time. Then, the neutrophils were broken using Triton X-100 (0.05%), and accordingly E. coli cells were recovered. The recovered E. coli cells were spread onto a plate and cultured in an incubator maintained at 37° C. The number of E. coli cells that had grown on the medium was counted and subjected to statistical analysis. […]

[2] = test system: neutrophils (human PMNs); test: IL-8 release induced by LPS in neutrophils (ELISA); assay type: cell-based; settings: 15 μM and 30 μM, 1 hour before 1 μg/ml LPS, supernatant after 3 hours
Text: Neutrophils were isolated from healthy adults using discontinuous percoll gradient according to the method of Szucs, S. et al. (J. Immunol. Methods, 167: 245-251, 1994). First, plasmas were separated from heparinized whole blood, and red blood cells were depleted by dextran sedimentation. Thereafter, leukocytes were layered over a percoll gradient with densities of 1.077 and 1.094 (Pharmacia, Sweden). Separated neutrophil layers were recovered from the percoll gradient interface, and then washed with HBSS (Hank's balanced salt solution, Sigma Chemical Co., USA). The remaining pellet was resuspended in RPMI 1640 medium supplemented with 10% FBS (fetal bovine serum) and 2 mM gentamicin. As a result of the examination of the cytospin stained with Wright-Giemsa (Sigma Chemical Co., USA), it was observed that the resuspension solution contained 95% or more neutrophils. Also, as a result of examination using trypan blue dye exclusion method, 98% or more neutrophils were observed. […]
The neutrophils and monocytes isolated in Examples <2-1> and <2-2> above were cultured in a 96-well plate to which RPMI1640 medium containing 10% FBS was added, at a concentration of 1×10^5 cells/well/0.2 ml, respectively. […] Then, the level of IL-8 was measured using ELISA kit (Biosource, USA).

[3] = test system: myeloperoxidase (MPO) in pulmonary tissues; test: Systemic LPS-induced acute lung injury model, lung MPO activity; assay type: in vivo, ICR mice
Description: ICR mice (25-30 g in body weight; MJ Ltd.) were intraperitoneally injected with LPS (induced from E. coli 055:B5) in an amount of 1 mg/kg thereby inducing Sepsis.
The activity of myeloperoxidase (MPO), an indicator of neutrophils, in pulmonary tissues was determined according to the methods of Goldblum et al (J. Appl. physiol. 59: 1978, 1985) and Parey et al (J. Immunol. 160:1007, 1998). First, mice were sacrificed and pulmonary tissues were obtained therefrom. The tissues had been homogenized in potassium phosphate buffer, and centrifuged to obtain pellets. These pellets were sonicated in potassium phosphate buffer containing 0.5% hexadecyltrimethylammonium bromide (HTAB), and incubated at 60° C. for 120 min. After centrifugation, supernatants were obtained. […] Accordingly, the absorbance of the mixture was determined at a wavelength of 460 nm. […]
ICR mice in LPS-induced septicemia model according to Reference Example <1-1> b) were divided into five groups of 7 mice (Sham group, an experimental group-1, an experimental group-2, an experimental group-3 and a control group). […] At 24 hours after LPS had been administered, the activity of MPO, an indicator of neutrophils, in the pulmonary tissues of the mice of each group, was determined as described in Reference Example 2.

[4] = test system: myeloperoxidase (MPO) in pulmonary tissues; test: LPS-induced (intratracheal) acute lung injury model, lung MPO activity; assay type: in vivo, ICR mice
Description: The activity of myeloperoxidase (MPO), an indicator of neutrophils, in pulmonary tissues was determined according to the methods of Goldblum et al (J. Appl. physiol. 59: 1978, 1985) and Parey et al (J. Immunol. 160:1007, 1998). First, mice were sacrificed and pulmonary tissues were obtained therefrom. The tissues had been homogenized in potassium phosphate buffer, and centrifuged to obtain pellets. These pellets were sonicated in potassium phosphate buffer containing 0.5% hexadecyltrimethylammonium bromide (HTAB), and incubated at 60° C. for 120 min. After centrifugation, supernatants were obtained. 0.02 ml of supernatants was mixed with potassium phosphate buffer solution (0.18 ml) containing o-dianisidine dihydrochloride of 0.167 mg/ml and 0.0005% hydrogen peroxide. Accordingly, the absorbance of the mixture was determined at a wavelength of 460 nm.
Mice were intratracheally administered with LPS to cause direct acute lung injury, thereby inducing acute respiratory distress syndrome.
ICR mice (25-30 g in body weight; MJ Ltd.) were divided into five groups of 7 mice (Sham group, experimental groups-1, -2, -3 and a control group). Mice of each group were anesthetized with pentobarbital, their skins were dissected in a length of 1 cm to expose their bronchia. […]

[5] = 20 mg/kg subcutaneous (experimental group-3), p<0.01

CCCCCCCCCCCCCCCCCC(=O)OCC(O)COP(=O)([O-])OCC[N+](C)(C)C (stereo not drawn) [1-stearoyl LPC, 1-stearoyl (18:0) lysophosphatidylcholine]
number of alive E. coli recovered from neutrophils [1]: significantly decreased
level of IL-8 release that had been increased by LPS in neutrophils [2]: inhibited by LPC in a concentration-dependent manner
activity of MPO in pulmonary tissues [3, 5]: the most excellent effects
activity of MPO in pulmonary tissues ([3]; 5, 10 and 20 mg/kg subcutaneous, 2 and 14 hours after intraperitoneal LPS 1 mg/kg, 24 hours after LPS, vs control group): suppressed in a concentration-dependent manner
activity of MPO in pulmonary tissues [4, 5]: the most excellent effects
activity of MPO in pulmonary tissues ([4]; 5, 10 and 20 mg/kg subcutaneous, 2 and 14 hours after intratracheal LPS, 24 hours after LPS, vs control group): suppressed in a concentration-dependent manner
